# The supplement of paper PMC10307832
# Legend:
# Assay in all cases: relative viability (nuclei count vs DMSO), 5 days (fraction); higher = more cells survive
# NCI-H1975 = test system: NCI-H1975
# Procedure, shortened: (§1)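 Each reported value is a median over duplicate plates. It expresses relative viability: treated-well nuclei count divided by vehicle-well nuclei count. Lung cancer cell lines in 1536-well plates were dosed by pin tool a day after seeding, alone with one drug or with a fixed anchor-drug dose plus five library-drug doses (not always all listed) in √10 steps, and nuclei were counted after 5 days.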
# NCI-H23 = test system: NCI-H23
# Procedure, shortened: as §1
# UMC-11 = test system: UMC-11
# Procedure, shortened: as §1
# HOP-62 = test system: HOP-62
# Procedure, shortened: as §1
# LU99A = test system: LU99A
# Procedure, shortened: as §1
# NCI-H2405 = test system: NCI-H2405
# Procedure, shortened: as §1
# NCI-H727 = test system: NCI-H727
# Procedure, shortened: as §1
# EPLC-272H = test system: EPLC-272H
# Procedure, shortened: as §1
# NCI-H838 = test system: NCI-H838
# Procedure, shortened: as §1
# ABC-1 = test system: ABC-1
# Procedure, shortened: as §1
# HCC-827 = test system: HCC-827
# Procedure, shortened: as §1
# NCI-H520 = test system: NCI-H520
# Procedure, shortened: as §1
# NCI-H647 = test system: NCI-H647
# Procedure, shortened: as §1
# NCI-H596 = test system: NCI-H596
# Procedure, shortened: as §1
# BEN = test system: BEN
# Procedure, shortened: as §1
# NCI-H1355 = test system: NCI-H1355
# Procedure, shortened: as §1
# NCI-H1792 = test system: NCI-H1792
# Procedure, shortened: as §1
# PC-14 = test system: PC-14
# Procedure, shortened: as §1
# NCI-H322M = test system: NCI-H322M
# Procedure, shortened: as §1
# NCI-H3122 = test system: NCI-H3122
# Procedure, shortened: as §1
# NCI-H1666 = test system: NCI-H1666
# Procedure, shortened: as §1
smiles,measurement,setting,value
O=c1[nH]c2ccccc2n1C1CCN(CCCC(c2ccc(F)cc2)c2ccc(F)cc2)CC1 [Pimozide] + CC(C)C[C@H](NC(=O)[C@H](Cc1ccccc1)NC(=O)c1cnccn1)B(O)O [Bortezomib] (partner 0.002 µM),relative viability,NCI-H1975; first compound 0.08 µM,0.338
same,relative viability,NCI-H1975; first compound 0.253 µM,0.39
same,relative viability,NCI-H1975; first compound 0.8 µM,0.398
same,relative viability,NCI-H1975; first compound 2.53 µM,0.337
same,relative viability,NCI-H1975; first compound 8 µM,0.355
same,relative viability,NCI-H23; first compound 0.08 µM,0.883
same,relative viability,NCI-H23; first compound 0.253 µM,1.04
same,relative viability,NCI-H23; first compound 0.8 µM,1.02
same,relative viability,NCI-H23; first compound 2.53 µM,0.757
same,relative viability,NCI-H23; first compound 8 µM,0.908
same,relative viability,UMC-11; first compound 0.08 µM,0.716
same,relative viability,UMC-11; first compound 0.253 µM,0.802
same,relative viability,UMC-11; first compound 0.8 µM,0.686
same,relative viability,UMC-11; first compound 2.53 µM,0.772
same,relative viability,UMC-11; first compound 8 µM,0.52
same,relative viability,HOP-62; first compound 0.08 µM,0.935
same,relative viability,HOP-62; first compound 0.253 µM,0.889
same,relative viability,HOP-62; first compound 2.53 µM,0.749
same,relative viability,HOP-62; first compound 8 µM,1.02
same,relative viability,LU99A; first compound 0.08 µM,1.17
same,relative viability,LU99A; first compound 0.253 µM,0.978
same,relative viability,LU99A; first compound 0.8 µM,1.09
same,relative viability,LU99A; first compound 2.53 µM,1.09
same,relative viability,LU99A; first compound 8 µM,0.929
same,relative viability,NCI-H2405; first compound 0.08 µM,0.761
same,relative viability,NCI-H2405; first compound 0.253 µM,0.979
same,relative viability,NCI-H2405; first compound 0.8 µM,0.979
same,relative viability,NCI-H2405; first compound 2.53 µM,0.896
same,relative viability,NCI-H2405; first compound 8 µM,0.984
same,relative viability,NCI-H727; first compound 0.08 µM,0.729
same,relative viability,NCI-H727; first compound 0.253 µM,0.788
same,relative viability,NCI-H727; first compound 0.8 µM,0.884
same,relative viability,NCI-H727; first compound 2.53 µM,0.733
same,relative viability,NCI-H727; first compound 8 µM,0.868
same,relative viability,EPLC-272H; first compound 0.08 µM,0.974
same,relative viability,EPLC-272H; first compound 0.253 µM,1.04
same,relative viability,EPLC-272H; first compound 0.8 µM,0.826
same,relative viability,EPLC-272H; first compound 2.53 µM,0.828
same,relative viability,EPLC-272H; first compound 8 µM,0.91
same,relative viability,NCI-H838; first compound 0.08 µM,0.786
same,relative viability,NCI-H838; first compound 0.253 µM,0.737
same,relative viability,NCI-H838; first compound 0.8 µM,0.786
same,relative viability,NCI-H838; first compound 2.53 µM,0.745
same,relative viability,NCI-H838; first compound 8 µM,0.684
same,relative viability,ABC-1; first compound 0.08 µM,0.289
same,relative viability,ABC-1; first compound 0.253 µM,0.284
same,relative viability,ABC-1; first compound 0.8 µM,0.34
same,relative viability,ABC-1; first compound 2.53 µM,0.227
same,relative viability,ABC-1; first compound 8 µM,0.26
same,relative viability,HCC-827; first compound 0.253 µM,0.943
same,relative viability,HCC-827; first compound 0.8 µM,0.918
same,relative viability,HCC-827; first compound 2.53 µM,0.982
same,relative viability,HCC-827; first compound 8 µM,1.04
same,relative viability,NCI-H520; first compound 0.08 µM,0.386
same,relative viability,NCI-H520; first compound 0.253 µM,0.538
same,relative viability,NCI-H520; first compound 0.8 µM,0.556
same,relative viability,NCI-H520; first compound 2.53 µM,0.437
same,relative viability,NCI-H520; first compound 8 µM,0.649
same,relative viability,NCI-H647; first compound 0.08 µM,1.08
same,relative viability,NCI-H647; first compound 0.253 µM,0.855
same,relative viability,NCI-H647; first compound 0.8 µM,0.851
same,relative viability,NCI-H647; first compound 2.53 µM,0.944
same,relative viability,NCI-H647; first compound 8 µM,0.529
same,relative viability,NCI-H596; first compound 0.08 µM,0.974
same,relative viability,NCI-H596; first compound 0.253 µM,0.968
same,relative viability,NCI-H596; first compound 0.8 µM,1
same,relative viability,NCI-H596; first compound 2.53 µM,0.994
same,relative viability,NCI-H596; first compound 8 µM,0.935
same,relative viability,BEN; first compound 0.08 µM,0.678
same,relative viability,BEN; first compound 0.253 µM,0.81
same,relative viability,BEN; first compound 0.8 µM,0.788
same,relative viability,BEN; first compound 2.53 µM,0.867
same,relative viability,BEN; first compound 8 µM,0.976
same,relative viability,NCI-H1355; first compound 0.08 µM,1.18
same,relative viability,NCI-H1355; first compound 0.253 µM,1.2
same,relative viability,NCI-H1355; first compound 0.8 µM,1.05
same,relative viability,NCI-H1355; first compound 2.53 µM,1.19
same,relative viability,NCI-H1355; first compound 8 µM,1.19
same,relative viability,NCI-H1792; first compound 0.08 µM,0.951
same,relative viability,NCI-H1792; first compound 0.253 µM,0.939
same,relative viability,NCI-H1792; first compound 0.8 µM,0.894
same,relative viability,NCI-H1792; first compound 2.53 µM,0.875
same,relative viability,NCI-H1792; first compound 8 µM,0.976
same,relative viability,PC-14; first compound 0.08 µM,0.855
same,relative viability,PC-14; first compound 0.253 µM,0.812
same,relative viability,PC-14; first compound 0.8 µM,0.844
same,relative viability,PC-14; first compound 2.53 µM,0.912
same,relative viability,PC-14; first compound 8 µM,0.81
same,relative viability,NCI-H322M; first compound 0.253 µM,1.26
same,relative viability,NCI-H322M; first compound 0.8 µM,1.18
same,relative viability,NCI-H322M; first compound 2.53 µM,1.16
same,relative viability,NCI-H322M; first compound 8 µM,1.09
same,relative viability,NCI-H3122; first compound 0.08 µM,0.983
same,relative viability,NCI-H3122; first compound 0.253 µM,0.959
same,relative viability,NCI-H3122; first compound 0.8 µM,1.01
same,relative viability,NCI-H3122; first compound 2.53 µM,0.981
same,relative viability,NCI-H3122; first compound 8 µM,1.01
same,relative viability,NCI-H1666; first compound 0.08 µM,0.823
same,relative viability,NCI-H1666; first compound 0.253 µM,0.744
same,relative viability,NCI-H1666; first compound 0.8 µM,0.761
same,relative viability,NCI-H1666; first compound 2.53 µM,0.7
same,relative viability,NCI-H1666; first compound 8 µM,0.626
